Laboratory results: patent publication US10538554B2, “Peptides and uses therefor as antiviral agents” (priority 2015, dated 2020)
Like-named read-outs stand apart in the source and are kept apart here. Bridge positions count the residues as written; N and C are the ends. Square brackets hold non-standard residues; d marks the D form. Peptide text beside a SMILES is read from it.

Tests used:
H9N2 A/Iran/16/2000 = conditions: 48 h
[1] = system: H1N1 A1/Malaysia/302/1954; conditions: A1/Malaysia/302/1954, 48 h
H3N8 A/Miami/2/63 = conditions: A/Miami/2/63, 48 h
H1N1 A/NY/18/2009 = conditions: A/NY/18/2009, 48 h, 10 μM
H3N2 A/HK/8/1968 = conditions: A/HK/8/1968, 48 h
H1N1 A/PR/8/1934 = conditions: A/PR/8/1934, 48 h, 10 μM

Structure (SMILES): CC[C@@H](C)[C@H]1NC(=O)[C@@H](Cc2ccccc2)NC(=O)[C@@H](C)NC(=O)[C@@H](Cc2ccccc2)NC(=O)[C@@H](Cc2c[nH]c3ccccc23)NC(=O)[C@@H]([C@H](C)O)NC(=O)[C@H](NC(=O)[C@H](CCCCN)NC(=O)[C@H](CCCCN)NC(=O)[C@H](CCCNC(=N)N)NC(=O)[C@@H](N)CCCNC(=N)N)CSSC[C@H](C(=O)O)NC(=O)[C@@H](CC(N)=O)NC1=O [PSP IV A1, H-RRKKctwfafinc-OH] (H-RRKK[dC][dT][dW][dF][dA][dF][dI][dN][dC]-OH; disulfide 5-13)
- % inhibition H9N2 (H9N2 A/Iran/16/2000; 10 μM): 77%
- % inhibition H1N1 ([1]; 10 μM): 78%
- % inhibition H3N8 (H3N8 A/Miami/2/63; 10 μM): 83%
- % Inhibition Pdm 2009 (H1N1 A/NY/18/2009): 78%

Structure (SMILES): CC[C@@H](C)[C@H]1NC(=O)[C@@H](Cc2ccccc2)NC(=O)[C@@H](CC(C)C)NC(=O)[C@@H](Cc2ccccc2)NC(=O)[C@@H](Cc2c[nH]c3ccccc23)NC(=O)[C@@H]([C@H](C)O)NC(=O)[C@H](NC(=O)[C@H](CCCCN)NC(=O)[C@H](CCCCN)NC(=O)[C@H](CCCNC(=N)N)NC(=O)[C@@H](N)CCCNC(=N)N)CSSC[C@H](C(=O)O)NC(=O)[C@@H](CC(N)=O)NC1=O [PSP IV A10, H-RRKKctwflfinc-OH] (H-RRKK[dC][dT][dW][dF][dL][dF][dI][dN][dC]-OH; disulfide 5-13)
- % inhibition H9N2 (H9N2 A/Iran/16/2000; 10 μM): 97%
- % inhibition H1N1 ([1]; 10 μM): 90%
- % inhibition H3N8 (H3N8 A/Miami/2/63; 10 μM): 96%
- % inhibition H3N2 (H3N2 A/HK/8/1968; 10 μM): 96%
- % Inhibition Pdm 2009 (H1N1 A/NY/18/2009): 85%
- % Inhibition PR/8 (H1N1 A/PR/8/1934): 96%

Structure (SMILES): CC[C@@H](C)[C@H]1NC(=O)[C@@H](Cc2ccccc2)NC(=O)[C@@H](CCC(N)=O)NC(=O)[C@@H](Cc2ccccc2)NC(=O)[C@@H](Cc2c[nH]c3ccccc23)NC(=O)[C@@H]([C@H](C)O)NC(=O)[C@H](NC(=O)[C@H](CCCCN)NC(=O)[C@H](CCCCN)NC(=O)[C@H](CCCNC(=N)N)NC(=O)[C@@H](N)CCCNC(=N)N)CSSC[C@H](C(=O)O)NC(=O)[C@@H](CC(N)=O)NC1=O [PSP IV A14, H-RRKKctwfqfinc-OH] (H-RRKK[dC][dT][dW][dF][dQ][dF][dI][dN][dC]-OH; disulfide 5-13)
- % inhibition H9N2 (H9N2 A/Iran/16/2000; 10 μM): 68%
- % inhibition H1N1 ([1]; 10 μM): 66%
- % inhibition H3N8 (H3N8 A/Miami/2/63; 10 μM): 83%
- % inhibition H3N2 (H3N2 A/HK/8/1968; 10 μM): 83%
- % Inhibition Pdm 2009 (H1N1 A/NY/18/2009): 74%
- % Inhibition PR/8 (H1N1 A/PR/8/1934): 77%

Structure (SMILES): CC[C@@H](C)[C@H]1NC(=O)[C@@H](Cc2ccccc2)NC(=O)[C@@H](CCC(=O)O)NC(=O)[C@@H](Cc2ccccc2)NC(=O)[C@@H](Cc2c[nH]c3ccccc23)NC(=O)[C@@H]([C@H](C)O)NC(=O)[C@H](NC(=O)[C@H](CCCCN)NC(=O)[C@H](CCCCN)NC(=O)[C@H](CCCNC(=N)N)NC(=O)[C@@H](N)CCCNC(=N)N)CSSC[C@H](C(=O)O)NC(=O)[C@@H](CC(N)=O)NC1=O [PSP IV A4, H-RRKKctwfefinc-OH] (H-RRKK[dC][dT][dW][dF][dE][dF][dI][dN][dC]-OH; disulfide 5-13)
- % inhibition H9N2 (H9N2 A/Iran/16/2000; 10 μM): 53%
- % inhibition H1N1 ([1]; 10 μM): 62%
- % inhibition H3N8 (H3N8 A/Miami/2/63; 10 μM): 72%
- % Inhibition Pdm 2009 (H1N1 A/NY/18/2009): 45%

Structure (SMILES): CC[C@@H](C)[C@H]1NC(=O)[C@@H](Cc2ccccc2)NC(=O)CNC(=O)[C@@H](Cc2ccccc2)NC(=O)[C@@H](Cc2c[nH]c3ccccc23)NC(=O)[C@@H]([C@H](C)O)NC(=O)[C@H](NC(=O)[C@H](CCCCN)NC(=O)[C@H](CCCCN)NC(=O)[C@H](CCCNC(=N)N)NC(=O)[C@@H](N)CCCNC(=N)N)CSSC[C@H](C(=O)O)NC(=O)[C@@H](CC(N)=O)NC1=O [PSP IV A6, H-RRKKctwfGfinc-OH] (H-RRKK[dC][dT][dW][dF]G[dF][dI][dN][dC]-OH; disulfide 5-13)
- % inhibition H9N2 (H9N2 A/Iran/16/2000; 10 μM): 35%
- % inhibition H1N1 ([1]; 10 μM): 59%
- % inhibition H3N8 (H3N8 A/Miami/2/63; 10 μM): 57%
- % Inhibition Pdm 2009 (H1N1 A/NY/18/2009): 47%

Structure (SMILES): CC[C@@H](C)[C@H]1NC(=O)[C@@H](Cc2ccccc2)NC(=O)[C@@H](CC(N)=O)NC(=O)[C@@H](Cc2ccccc2)NC(=O)[C@@H](Cc2c[nH]c3ccccc23)NC(=O)[C@@H]([C@H](C)O)NC(=O)[C@H](NC(=O)[C@H](CCCCN)NC(=O)[C@H](CCCCN)NC(=O)[C@H](CCCNC(=N)N)NC(=O)[C@@H](N)CCCNC(=N)N)CSSC[C@H](C(=O)O)NC(=O)[C@@H](CC(N)=O)NC1=O [PSP IV A12, H-RRKKctwfnfinc-OH] (H-RRKK[dC][dT][dW][dF][dN][dF][dI][dN][dC]-OH; disulfide 5-13)
- % inhibition H9N2 (H9N2 A/Iran/16/2000; 10 μM): 48%
- % inhibition H1N1 ([1]; 10 μM): 67%
- % inhibition H3N8 (H3N8 A/Miami/2/63; 10 μM): 56%
- % Inhibition Pdm 2009 (H1N1 A/NY/18/2009): 60%

Structure (SMILES): CC[C@@H](C)[C@H]1NC(=O)[C@@H](Cc2ccccc2)NC(=O)[C@@H](CO)NC(=O)[C@@H](Cc2ccccc2)NC(=O)[C@@H](Cc2c[nH]c3ccccc23)NC(=O)[C@@H]([C@H](C)O)NC(=O)[C@H](NC(=O)[C@H](CCCCN)NC(=O)[C@H](CCCCN)NC(=O)[C@H](CCCNC(=N)N)NC(=O)[C@@H](N)CCCNC(=N)N)CSSC[C@H](C(=O)O)NC(=O)[C@@H](CC(N)=O)NC1=O [PSP IV A16, H-RRKKctwfsfinc-OH] (H-RRKK[dC][dT][dW][dF][dS][dF][dI][dN][dC]-OH; disulfide 5-13)
- % inhibition H9N2 (H9N2 A/Iran/16/2000; 10 μM): 89%
- % inhibition H1N1 ([1]; 10 μM): 91%
- % inhibition H3N8 (H3N8 A/Miami/2/63; 10 μM): 93%
- % inhibition H3N2 (H3N2 A/HK/8/1968; 10 μM): 96%
- % Inhibition Pdm 2009 (H1N1 A/NY/18/2009): 81%
- % Inhibition PR/8 (H1N1 A/PR/8/1934): 78%

Structure (SMILES): CC[C@@H](C)[C@H]1NC(=O)[C@@H](Cc2ccccc2)NC(=O)[C@@H](C(C)C)NC(=O)[C@@H](Cc2ccccc2)NC(=O)[C@@H](Cc2c[nH]c3ccccc23)NC(=O)[C@@H]([C@H](C)O)NC(=O)[C@H](NC(=O)[C@H](CCCCN)NC(=O)[C@H](CCCCN)NC(=O)[C@H](CCCNC(=N)N)NC(=O)[C@@H](N)CCCNC(=N)N)CSSC[C@H](C(=O)O)NC(=O)[C@@H](CC(N)=O)NC1=O [PSP IV A18, H-RRKKctwfvfinc-OH] (H-RRKK[dC][dT][dW][dF][dV][dF][dI][dN][dC]-OH; disulfide 5-13)
- % inhibition H9N2 (H9N2 A/Iran/16/2000; 10 μM): 95%
- % inhibition H1N1 ([1]; 10 μM): 84%
- % inhibition H3N8 (H3N8 A/Miami/2/63; 10 μM): 96%
- % inhibition H3N2 (H3N2 A/HK/8/1968; 10 μM): 96%
- % Inhibition Pdm 2009 (H1N1 A/NY/18/2009): 97%
- % Inhibition PR/8 (H1N1 A/PR/8/1934): 96%

Structure (SMILES): CC[C@@H](C)[C@H]1NC(=O)[C@@H](Cc2ccccc2)NC(=O)[C@@H](CS)NC(=O)[C@@H](Cc2ccccc2)NC(=O)[C@@H](Cc2c[nH]c3ccccc23)NC(=O)[C@@H]([C@H](C)O)NC(=O)[C@H](NC(=O)[C@H](CCCCN)NC(=O)[C@H](CCCCN)NC(=O)[C@H](CCCNC(=N)N)NC(=O)[C@@H](N)CCCNC(=N)N)CSSC[C@H](C(=O)O)NC(=O)[C@@H](CC(N)=O)NC1=O [PSP IV A2, H-RRKKctwfcfinc-OH] (H-RRKK[dC][dT][dW][dF][dC][dF][dI][dN][dC]-OH; disulfide 5-13)
- % inhibition H9N2 (H9N2 A/Iran/16/2000; 10 μM): 64%
- % inhibition H1N1 ([1]; 10 μM): 60%
- % inhibition H3N8 (H3N8 A/Miami/2/63; 10 μM): 76%
- % inhibition H3N2 (H3N2 A/HK/8/1968; 10 μM): 82%
- % Inhibition Pdm 2009 (H1N1 A/NY/18/2009): 68%
- % Inhibition PR/8 (H1N1 A/PR/8/1934): 68%

Structure (SMILES): CC[C@@H](C)[C@H]1NC(=O)[C@@H](Cc2ccccc2)NC(=O)[C@@H](CCCCN)NC(=O)[C@@H](Cc2ccccc2)NC(=O)[C@@H](Cc2c[nH]c3ccccc23)NC(=O)[C@@H]([C@H](C)O)NC(=O)[C@H](NC(=O)[C@H](CCCCN)NC(=O)[C@H](CCCCN)NC(=O)[C@H](CCCNC(=N)N)NC(=O)[C@@H](N)CCCNC(=N)N)CSSC[C@H](C(=O)O)NC(=O)[C@@H](CC(N)=O)NC1=O [PSP IV A9, H-RRKKctwfkfinc-OH] (H-RRKK[dC][dT][dW][dF][dK][dF][dI][dN][dC]-OH; disulfide 5-13)
- % inhibition H9N2 (H9N2 A/Iran/16/2000; 10 μM): 39%
- % inhibition H1N1 ([1]; 10 μM): 56%
- % inhibition H3N8 (H3N8 A/Miami/2/63; 10 μM): 79%
- % inhibition H3N2 (H3N2 A/HK/8/1968; 10 μM): 73%
- % Inhibition Pdm 2009 (H1N1 A/NY/18/2009): 66%
- % Inhibition PR/8 (H1N1 A/PR/8/1934): 74%

Structure (SMILES): CC[C@@H](C)[C@H]1NC(=O)[C@@H](Cc2ccccc2)NC(=O)[C@@H](CC(=O)O)NC(=O)[C@@H](Cc2ccccc2)NC(=O)[C@@H](Cc2c[nH]c3ccccc23)NC(=O)[C@@H]([C@H](C)O)NC(=O)[C@H](NC(=O)[C@H](CCCCN)NC(=O)[C@H](CCCCN)NC(=O)[C@H](CCCNC(=N)N)NC(=O)[C@@H](N)CCCNC(=N)N)CSSC[C@H](C(=O)O)NC(=O)[C@@H](CC(N)=O)NC1=O [PSP IV A3, H-RRKKctwfdfinc-OH] (H-RRKK[dC][dT][dW][dF][dD][dF][dI][dN][dC]-OH; disulfide 5-13)
- % inhibition H9N2 (H9N2 A/Iran/16/2000; 10 μM): 30%
- % inhibition H1N1 ([1]; 10 μM): 49%
- % inhibition H3N8 (H3N8 A/Miami/2/63; 10 μM): 59%
- % Inhibition Pdm 2009 (H1N1 A/NY/18/2009): 72%

Structure (SMILES): CC[C@@H](C)[C@H]1NC(=O)[C@@H](Cc2ccccc2)NC(=O)[C@@H](CCCNC(=N)N)NC(=O)[C@@H]([C@H](C)CC)NC(=O)[C@@H](Cc2c[nH]c3ccccc23)NC(=O)[C@@H]([C@H](C)O)NC(=O)[C@H](NC(=O)[C@H](CCCCN)NC(=O)[C@H](CCCCN)NC(=O)[C@H](CCCNC(=N)N)NC(=O)[C@@H](N)CCCNC(=N)N)CSSC[C@H](C(=O)O)NC(=O)[C@@H](CC(N)=O)NC1=O [PSP III B8, H-RRKKctwirfinc-OH] (H-RRKK[dC][dT][dW][dI][dR][dF][dI][dN][dC]-OH; disulfide 5-13)
- % inhibition H9N2 (H9N2 A/Iran/16/2000; 50 μM): 81%
- % inhibition H1N1 ([1]; 50 μM): 88%
- % inhibition H3N8 (H3N8 A/Miami/2/63; 50 μM): 91%
- % inhibition H3N2 (H3N2 A/HK/8/1968; 50 μM): 100%
